Starred links: 1 amine or outer side, 2 acyl side, 3 side chain; linkers in the order of their positions; H or OH if unused. Non-standard residues stand in square brackets, D forms with d. Residues, ends and D or L forms follow the SMILES beside them. *: point of attachment. Ala(piperidin-4-yl) = O=C([C@H](CC1CCN([*:3])CC1)N[*:1])[*:2]; Malonyl(2,2-Me2,histaminyl) = CC(C)(C(=O)NCCc1cnc[nH]1)C(=O)*; dBip = N[C@H](Cc1ccc(-c2ccccc2)cc1)C(=O)O; Oic = O=C(O)[C@@H]1C[C@@H]2CCCC[C@@H]2N1; Phe(4-Br) = N[C@@H](Cc1ccc(Br)cc1)C(=O)O; 2Nal = N[C@@H](Cc1ccc2ccccc2c1)C(=O)O; X3 = CC(C)(C(=O)NCCc1ccccn1)C(=O)*; hArg = N=C(N)NCCCC[C@H](N)C(=O)O; Pip = O=C(O)[C@@H]1CCCCN1; Aib = CC(C)(N)C(=O)O
Tests used:
human Apelin receptor [1] = target: T1, human Apelin receptor (Homo sapiens, UniProt P35414); assay: cAMP accumulation assay (HTRF), functional agonism of human Apelin receptors; format: cell-based; settings: CHO cells stably expressing the human Apelin receptor, 3 uM forskolin; for Emax: Human Apelin agonist cAMP assay; for EC50: pEC50, Human Apelin agonist cAMP assay
T1 sequence (P35414 1-380): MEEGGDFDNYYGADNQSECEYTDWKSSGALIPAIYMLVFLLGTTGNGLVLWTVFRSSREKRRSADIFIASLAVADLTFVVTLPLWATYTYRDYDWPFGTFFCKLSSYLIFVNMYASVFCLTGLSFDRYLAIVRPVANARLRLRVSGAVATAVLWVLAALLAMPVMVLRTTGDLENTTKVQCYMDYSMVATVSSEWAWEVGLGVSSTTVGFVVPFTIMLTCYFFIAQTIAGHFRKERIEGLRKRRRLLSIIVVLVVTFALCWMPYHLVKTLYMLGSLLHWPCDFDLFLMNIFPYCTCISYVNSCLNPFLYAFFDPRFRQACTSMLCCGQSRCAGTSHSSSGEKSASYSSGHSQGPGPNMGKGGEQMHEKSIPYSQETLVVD
Text: cAMP functional assay. cAMP production was quantified using the Homogeneous Time-Resolved Fluorescence (HTRF) cAMP dynamic-2 assay (Cisbio, France).

human Apelin receptor [2] = target: T2, human Apelin receptor (Homo sapiens, UniProt P35414); assay: β-arrestin accumulation assay, functional agonism of human Apelin receptors; format: cell-based
T2 construct: host or cells: CHO-K1 cells
Method: β-arrestin assay. […] After 16 h incubation at 37° C. media was removed and cells were incubated at 37° C. for 90 min in serum free media containing increasing concentrations of test agonist. The assay reaction was stopped by adding detection reagent (DiscoveRx) and incubation for 60 min in the dark. Levels of receptor activation were then measured on a PheraStar fluorescence plate reader (BMG LabTech) and EC50 values were determined using Graphpad Prism.
T2 sequence (P32121 whole entry partner, one chain of several): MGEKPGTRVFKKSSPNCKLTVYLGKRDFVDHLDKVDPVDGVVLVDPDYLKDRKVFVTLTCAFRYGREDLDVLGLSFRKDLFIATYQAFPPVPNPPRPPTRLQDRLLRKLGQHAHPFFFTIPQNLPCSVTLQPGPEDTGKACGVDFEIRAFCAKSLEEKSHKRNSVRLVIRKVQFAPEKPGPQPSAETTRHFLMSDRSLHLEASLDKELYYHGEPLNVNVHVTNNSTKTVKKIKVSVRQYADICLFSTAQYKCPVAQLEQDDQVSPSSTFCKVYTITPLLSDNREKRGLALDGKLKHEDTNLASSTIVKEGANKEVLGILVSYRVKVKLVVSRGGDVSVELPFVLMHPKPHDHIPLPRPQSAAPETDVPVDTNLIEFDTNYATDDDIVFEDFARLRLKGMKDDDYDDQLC

SMILES | Emax (human Apelin receptor [1]; CHO) [%] | EC50 (human Apelin receptor [1]) [nM] | EC50 (human Apelin receptor [2]) [nM] | Emax (human Apelin receptor [1]) | Human Apelin agonist β-arrestin assay pEC50 (human Apelin receptor [2]; CHO-K1 cells overexpressing human Apelin receptor and β-arrestin, 90 min)
CC(C)C[C@H](NC(=O)[C@@H](CCCNC(=N)N)NC(=O)[C@@H]1CCCN1C(=O)[C@H](CCCCNC(=N)N)NC(=O)[C@H](CCC(N)=O)NC(=O)[C@@H](CCCNC(=N)N)NC(=O)C(C)(C)C(=O)NCCc1ccccn1)C(=O)NC(C)(C)C(=O)N[C@@H](Cc1c[nH]cn1)C(=O)N[C@@H](CC1CCNCC1)C(=O)NCC(=O)N1[C@H](C(=O)N[C@@H](Cc2ccc(Br)cc2)C(=O)N2CCC[C@H]2C(=O)N[C@H](Cc2ccc(-c3ccccc3)cc2)C(=O)O)C[C@@H]2CCCC[C@@H]21 [Example 6] (X3-[dR]Q[hArg]P[dR]L[Aib]H[Ala(piperidin-4-yl)]G[Oic][Phe(4-Br)]P[dBip]-OH) | 53.9 | 20 | > 10000 | – | –
CC(C)C[C@H](NC(=O)[C@@H](CCCNC(=N)N)NC(=O)C1C2CC2CN1C(=O)[C@H](CCCCNC(=N)N)NC(=O)[C@H](CCC(N)=O)NC(=O)[C@@H](CCCNC(=N)N)NC(=O)C(C)(C)C(=O)NCCc1c[nH]cn1)C(=O)NC(C)(C)C(=O)N[C@@H](Cc1c[nH]cn1)C(=O)N[C@@H](CC1CCNCC1)C(=O)NCC(=O)N1[C@H](C(=O)N[C@@H](Cc2ccc(Br)cc2)C(=O)N2CCC[C@H]2C(=O)N[C@H](Cc2ccc(-c3ccccc3)cc2)C(=O)O)C[C@@H]2CCCC[C@@H]21 (single isomer, unassigned) [37 Isomer 2] | – | 5.01 | – | 68.9 | <4
CC(C)C[C@H](NC(=O)[C@@H](CCCNC(=N)N)NC(=O)[C@@H]1CCCN1C(=O)[C@H](CCCCNC(=N)N)NC(=O)[C@H](CCC(N)=O)NC(=O)C(C)(C)C(=O)NCCc1ccccn1)C(=O)NC(C)(C)C(=O)N[C@@H](Cc1c[nH]cn1)C(=O)N[C@@H](CC1CCNCC1)C(=O)NCC(=O)N1[C@H](C(=O)N[C@@H](Cc2ccc(Br)cc2)C(=O)N2CCC[C@H]2C(=O)N[C@H](Cc2ccc(-c3ccccc3)cc2)C(=O)O)C[C@@H]2CCCC[C@@H]21 [Example 46] (X3-Q[hArg]P[dR]L[Aib]H[Ala(piperidin-4-yl)]G[Oic][Phe(4-Br)]P[dBip]-OH) | 55 | 39.8 | > 10000 | – | –
CC(C)C[C@H](NC(=O)[C@@H](CCCNC(=N)N)NC(=O)[C@@H]1CCCN1C(=O)[C@H](CCCCNC(=N)N)NC(=O)[C@H](CCC(N)=O)NC(=O)[C@@H](CCCNC(=N)N)NC(=O)C(C)(C)C(=O)NCCc1c[nH]cn1)C(=O)NC(C)(C)C(=O)N[C@@H](Cc1c[nH]cn1)C(=O)N[C@@H](CC1CCNCC1)C(=O)NCC(=O)N1[C@H](C(=O)N[C@@H](Cc2ccc(Br)cc2)C(=O)N2CCCC[C@H]2C(=O)N[C@H](Cc2ccc(-c3ccccc3)cc2)C(=O)O)C[C@@H]2CCCC[C@@H]21 [Example 21] ({Malonyl(2,2-Me2,histaminyl)}-[dR]Q[hArg]P[dR]L[Aib]H[Ala(piperidin-4-yl)]G[Oic][Phe(4-Br)][Pip][dBip]-OH) | 54.5 | 10 | > 1000 | – | –
CC(C)C[C@H](NC(=O)[C@@H](CCCNC(=N)N)NC(=O)[C@@H]1CCCN1C(=O)[C@H](CCCCNC(=N)N)NC(=O)[C@H](CCC(N)=O)NC(=O)[C@@H](CCCNC(=N)N)NC(=O)C(C)(C)C(=O)NCCc1c[nH]cn1)C(=O)NC(C)(C)C(=O)N[C@@H](Cc1c[nH]cn1)C(=O)N[C@@H](CC1CCNCC1)C(=O)NCC(=O)N1[C@H](C(=O)N[C@@H](Cc2ccc3ccccc3c2)C(=O)N2CCC[C@H]2C(=O)N[C@H](Cc2ccc(-c3ccccc3)cc2)C(=O)O)C[C@@H]2CCCC[C@@H]21 [Example 20] ({Malonyl(2,2-Me2,histaminyl)}-[dR]Q[hArg]P[dR]L[Aib]H[Ala(piperidin-4-yl)]G[Oic][2Nal]P[dBip]-OH) | 84.1 | 12.6 | > 10000 | – | –
CC(C)C[C@H](NC(=O)[C@H](CCCNC(=N)N)NC(=O)[C@@H]1CCCN1C(=O)[C@@H](CCCNC(=N)N)NC(=O)[C@H](CCC(N)=O)NC(=O)C(C)(C)C(=O)NCCc1cnc[nH]1)C(=O)NC(C)(C)C(=O)N[C@@H](Cc1c[nH]cn1)C(=O)N[C@@H](CC1CCNCC1)C(=O)NCC(=O)N1[C@H](C(=O)N[C@@H](Cc2ccc(Br)cc2)C(=O)N2CCC[C@H]2C(=O)N[C@H](Cc2ccc(-c3ccccc3)cc2)C(=O)O)C[C@@H]2CCCC[C@@H]21 [Example 40] ({Malonyl(2,2-Me2,histaminyl)}-Q[dR]PRL[Aib]H[Ala(piperidin-4-yl)]G[Oic][Phe(4-Br)]P[dBip]-OH) | 84.8 | 25.1 | > 10000 | – | –

From patent publication US20230382949A1 (HEPTARES THERAPEUTICS LIMITED, priority 2020, published 2023)
